Patent US20230293488A1, “COMPOSITIONS AND METHODS OF USE OF ANTIBACTERIAL DRUG COMBINATIONS” (priority 2015, published 2023)
Where “and” joins values, the source holds several entries; their conditions need not be identical. Identical values can stand only once. Entries after “also recorded” stand apart in the source; their conditions may differ.

Tests used:
[1] = test system: MRSA N315; test: In vitro MICs and FICI for MRSA N315 after passage in vivo; format: cell-based, Staphylococcus aureus
Excerpt: We tested MRSA N315 cultures from blood drawn from mice treated with meropenem, piperacillin, or vehicle for their in vitro MICs against ME/PI/TZ and its constituent single drugs to determine whether adaptation occurred during passage in vivo. All four tested isolates of MRSA N315 had identical MICs for the triple ME/PI/TZ and all constituent drugs, and thus identical synergy (Table 6B).
Microbiological Studies: MRSA N315 was a gift from Dr. Steven Gill, University of Rochester, Rochester, NY, USA. S. aureus ATCC 29213 was acquired from the American Type Culture Collection. De-identified clinical MRSA isolates were selected at random from the clinical isolate strain bank at Barnes-Jewish Hospital, St. Louis, MO, USA. Minimal inhibitory concentration (MIC) assays for inhibition of growth were performed following the recommendations of the Clinical and Laboratory Standards Institute (CLSI)^43. Briefly, 23 antibacterial compounds (Supplemental Table 1) were selected based on coverage of all major drug classes, including three compounds not classified as antibiotics for human use, but with known antibacterial properties. Compounds were dissolved in dimethyl sulfoxide (DMSO) to a stock concentration of 50 mg/ml. Exceptions: Sulfometuron at 20 mg/ml in DMSO; Tobramycin, D-cycloserine, and colistin at 50 mg/ml in H2O and filtered at 2 μm. The 23 compounds were formulated into all 253 possible unique pairwise combinations at fixed ratios and at 100× concentrations in solvent. To increase the range of concentrations assayed for possible synergistic or antagonistic drug interactions (>2,000-fold), the drug stocks were arrayed into threefold dilution series down eight rows in 96-well Costar master drug plates, using a BioMek FX robotic liquid handler (Beckman Coulter, Inc.). Drugs were then mixed 1:100 into 96-well plates containing 200 μl/well of cation-adjusted Mueller-Hinton broth (CAMHB). All drug susceptibility assay wells were inoculated with ˜1 μl of mid-log phase bacterial culture at 0.5 McFarland standard (˜2×10^8 CFU/ml) and grown at 37° C. for 24 h. Endpoint growth at 37° C. after 24 h was determined by optical density at 600 nm ≥0.1 using a Synergy H1 reader (BioTek, Inc.).
(§1) Bacterial isolation from blood. Blood samples were checked for bacterial growth by plating and liquid culture. Whole blood (100 μl, three samples per group) was spread onto Brain-Heart Infusion (BHI) agar plates and incubated at 36° C. overnight. Colonies were counted and three colonies were selected, grown overnight in liquid BHI culture at 36° C., then mixed 1:1 with 30% LB-glycerol and stored at −80° C. The remaining three blood samples of each group (50 μl) was added to 5 ml BHI broth and incubated overnight at 36° C. When growth was noted, cultures were mixed 1:1 with 30% LB-glycerol and stored at −80° C.

[2] = test system: MRSA N315; test: Neutropenic mouse peritonitis model of MRSA infection; format: in vivo, mice; conditions: for Result (Alive/Dead) / Result (survivors per group) / Bacterial detection results: Plated: 67 mg/kg (of each) every 8 hrs SC; for Result (Alive/Dead) / Result (survivors per group): 6 doses; for Result (Alive/Dead) / Bacterial detection results: Plated: one line per mouse; for Result (survivors per group): six days post-infection; for Bacterial detection results: Plated: cheek bleed 11 h post-infection, ~100 uL blood plated, 67 mg/kg; for mice that succumbed to the infection: most within 48 h, 67 mg/kg (of each)
Excerpt: In vivo mouse model of MRSA infection: Animals. Outbred ICR female mice (6-8 weeks old, 17-25 g body weight; Harlan Laboratories, Inc., Indianapolis, IN, USA) were used. Mice were given Teklad 2019 Extruded Rodent Diet (Harlan Laboratories, Inc., Indianapolis, IN, USA) and water ad libitum. Mice were maintained in polycarbonate shoebox cages containing corncob (The Andersons, Inc., Maumee, OH, USA) and Alpha-dri (Shepherd Specialty Papers, Inc., Richland, MI, USA) bedding under 12-h light/12-h dark cycle at 22±1° C. All procedures involving animals were approved by the University of Notre Dame Institutional Animal Care and Use Committee.
Neutropenic mouse peritonitis model of MRSA infection. Doses of cyclophosphamide (100 μl of 50 mg/ml in 0.9% saline corresponding to 200 mg/kg; Alfa Aesar, Ward Hill, MA, USA) were given intraperitoneally (IP) at 4 days and 1 day prior to infection. The S. strain N315 was streaked onto Brain-Heart Infusion (BHI; Becton Dickson and Company, Sparks, MD, USA) agar and grown overnight at 36° C. The MRSA N315 bacterial inoculum was adjusted to approximately 1×10^8 CFU/ml (corresponding to OD540=0.5), then diluted to give 2×10^7CFU/ml. A 10% porcine mucin (Sigma-Aldrich, St. Louis, MO, USA) suspension was prepared and adjusted to pH 7. Immediately prior to infection, the bacterial inocula were diluted 1:1 with 10% mucin to a final concentration of 1×10^7CFU/ml in 5% mucin. The mice were then infected IP with 0.5 ml of this inoculum. In vivo dosing of compounds in mice was compared with mean or range peak human plasma concentrations of studied β-lactams^44,46,47,62,63.
Antibiotic preparation. Meropenem was obtained from AK Scientific, Inc. (Union City, CA, USA), piperacillin and tazobactam were obtained from Sigma-Aldrich Co. (St. Louis, MO, USA). Linezolid (CAS 165800-03-3) was obtained from AmplaChem (Carmel, IN, USA). Antibiotics were dissolved at a concentration of 16.67 mg/ml in 30% DMSO/30% propylene glycol/40% water. Linezolid was used as positive control and was prepared at 7.5 mg/ml. Vehicle (30% DMSO/30% propylene glycol/40% water) was included as negative control. The dosing formulations were sterilized by passing through 0.2 μm filter prior to injection.
as §1
Statistical Analyses: Data for minimal inhibitory concentrations (MICs) are derived from triplicate measurements. Adaptation data are taken from two replicate experiments for each drug combination condition. Data for qRT-PCR expression profiling are derived from three replicate experiments taken from three biological replicates each, with standard error of measurement calculated. Mice were treated in groups of six, and growth determination of bacteria determined via plate and broth culture in triplicate. Fisher's Exact test with Bonferroni correction was used for 8 independent tests (comparing each treatment to 610 vehicle).

[3] = test system: MRSA COL pbp2a/mecA antisense (AS) strain; test: Xylose-inducible antisense-RNA strain susceptibility (PBP2a repression); format: cell-based, Staphylococcus aureus; conditions: targeted repression of PBP2a
Excerpt: We confirmed the targets of the constituents of ME/PI/TZ by reducing the expression of PBP1, PBP2, PBP2a or PBP3 using a xylose-inducible antisense-RNA strategy in the MRSA COL strain background^49. When expression levels of PBP2a were attenuated, the strain behaved as a methicillin-susceptible S. aureus and was sensitized to all tested β-lactams (FIG. 6A-C).

[4] = colonies from mice given Vehicle

Compound	MIC ([1]; Staphylococcus aureus, MRSA)	MIC ([1]; Wild-type N315)	MIC ([1]; colonies from mice given PI)	MIC [1, 4]	Result (Alive/Dead) [2]	Result (survivors per group) [2]	Bacterial detection results: Plated [2]	mice that succumbed to the infection [2]	susceptibility under xylose induction [3]
CCN1CCN(C(=O)N[C@@H](C(=O)N[C@@H]2C(=O)N3[C@@H]2SC(C)(C)[C@@H]3C(=O)O)c2ccccc2)C(=O)C1=O [Piperacillin]	33.3 µg/mL	33.3 µg/mL	33.3 µg/mL	33.3 µg/mL	Dead	0/6	Plated: 40 colonies	all mice	Increased susceptibility
C[C@@H](O)[C@H]1C(=O)N2C(C(=O)O)=C(S[C@@H]3CN[C@H](C(=O)N(C)C)C3)[C@H](C)[C@H]12 [Meropenem]	33.3 µg/mL	33.3 µg/mL	33.3 µg/mL	33.3 µg/mL	Alive (4×) and Dead (2×)	4/6	Plated: 11 colonies; also recorded: Plated: 3 colonies	several mice	increased susceptibility
